# “And” between values parts separate entries of the source, which are not always exact repeats. Equal values may be shown once. Inconclusive results and toxic doses are left out.
# Tested on: L1210 leukemia ip in BDF1 mice, survival T/C
# Experiment: NCI In Vivo Anticancer Drug Screen. Data for tumor model L1210 Leukemia (intraperitoneal) in B6D2F1 (BDF1) mice
# Settings: endpoint: mean survival time, higher = longer survival
# How it was run: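 Tumor was transplanted into mice, which were then dosed with test compound or vehicle alone. Survival was recorded for each group, and the treated figure was expressed relative to the control figure.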
# [1] = dose: 25.0 mg/kg/injection, schedule: Q01DX009 (ip), vehicle: saline with Tween-80
# [2] = dose: 50.0 mg/kg/injection, schedule: Q01DX009 (ip), vehicle: saline with Tween-80
# [3] = dose: 100.0 mg/kg/injection, schedule: Q01DX001 (ip), vehicle: saline
# [4] = dose: 100.0 mg/kg/injection, schedule: Q04DX003 (ip), vehicle: saline
# [5] = dose: 200.0 mg/kg/injection, schedule: Q01DX001 (ip), vehicle: saline
# [6] = dose: 400.0 mg/kg/injection, schedule: Q01DX001 (ip), vehicle: saline
# [7] = dose: 100.0 mg/kg/injection, schedule: Q04DX003 (ip), vehicle: Klucel (hydroxypropylcellulose) (HPC)
# [8] = dose: 200.0 mg/kg/injection, schedule: Q04DX003 (ip), vehicle: Klucel (hydroxypropylcellulose) (HPC)
# [9] = dose: 200.0 mg/kg/injection, schedule: Q04DX003 (ip), vehicle: saline
# [10] = dose: 400.0 mg/kg/injection, schedule: Q04DX003 (ip), vehicle: saline
# [11] = dose: 100.0 mg/kg/injection, schedule: Q01DX009 (ip), vehicle: Klucel (hydroxypropylcellulose) (HPC)
# [12] = dose: 200.0 mg/kg/injection, schedule: Q01DX009 (ip), vehicle: Klucel (hydroxypropylcellulose) (HPC)
# [13] = dose: 400.0 mg/kg/injection, schedule: Q01DX009 (ip), vehicle: Klucel (hydroxypropylcellulose) (HPC)
# [14] = dose: 400.0 mg/kg/injection, schedule: Q04DX003 (ip), vehicle: Klucel (hydroxypropylcellulose) (HPC)
# [15] = dose: 100.0 mg/kg/injection, schedule: Q01DX009 (ip), vehicle: saline with Tween-80
# [16] = dose: 100.0 mg/kg/injection, schedule: Q04DX003 (ip), vehicle: saline with Tween-80
# [17] = dose: 200.0 mg/kg/injection, schedule: Q01DX009 (ip), vehicle: saline with Tween-80
# [18] = dose: 200.0 mg/kg/injection, schedule: Q04DX003 (ip), vehicle: saline with Tween-80
# [19] = dose: 25.0 mg/kg/injection, schedule: Q04DX002 (ip), vehicle: saline
# [20] = dose: 50.0 mg/kg/injection, schedule: Q04DX002 (ip), vehicle: saline
# [21] = dose: 100.0 mg/kg/injection, schedule: Q01DX009 (ip), vehicle: saline
# [22] = dose: 100.0 mg/kg/injection, schedule: Q04DX002 (ip), vehicle: saline
smiles,measurement,setting,value
CC1=CC(O)Nc2c(CBr)cccc21 (stereo unspecified),T/C,[1],97 % of control
same,T/C,[2],103 % of control
same,T/C,[3],107 % of control
same,T/C,[4],101 % of control
same,T/C,[5],95 % of control
same,T/C,[6],91 % of control
COc1ccc(CN2CCCN(Cc3ccc(OC)cc3OC)C2c2ccccc2F)c(OC)c1,T/C,"dose: 50.0 mg/kg/injection, schedule: Q01DX001 (ip), vehicle: saline",96 % of control
same,T/C,[3],96 % of control
same,T/C,[5],89 % of control
same,T/C,[6],94 % of control
O=C(O)COc1ccccc1-c1ccccc1Cl,T/C,[7],98 % of control
same,T/C,[8],90 % of control
CC(C#N)Oc1cccc2ccccc12 (stereo unspecified),T/C,"dose: 100.0 mg/kg/injection, schedule: Q01DX009 (ip), vehicle: DMSO",87 % of control
same,T/C,"dose: 100.0 mg/kg/injection, schedule: Q04DX003 (ip), vehicle: DMSO",92 % of control
same,T/C,"dose: 200.0 mg/kg/injection, schedule: Q01DX009 (ip), vehicle: DMSO",87 % of control
same,T/C,"dose: 200.0 mg/kg/injection, schedule: Q04DX003 (ip), vehicle: DMSO",87 % of control
same,T/C,"dose: 400.0 mg/kg/injection, schedule: Q04DX003 (ip), vehicle: DMSO",103 % of control
Cc1ccccc1-n1nnnc1N,T/C,[4],102 % of control
same,T/C,[9],96 % of control
same,T/C,[10],98 % of control
CC(=O)c1cccc(NC(=O)c2cccc(F)c2)c1,T/C,[11],95 % of control
same,T/C,[12],97 % of control
same,T/C,[13],95 % of control
CCOC(=O)C(=Cc1ccc(Cl)cc1)C(=O)OCC,T/C,"dose: 25.0 mg/kg/injection, schedule: Q01DX009 (ip), vehicle: Klucel (hydroxypropylcellulose) (HPC)",95 % of control
same,T/C,"dose: 50.0 mg/kg/injection, schedule: Q01DX009 (ip), vehicle: Klucel (hydroxypropylcellulose) (HPC)",97 % of control
same,T/C,[11],102 % of control
same,T/C,[7],107 % of control
same,T/C,[8],98 % of control
same,T/C,[14],100 % of control
Cc1ccc(C)c(CCO)c1,T/C,[15],100 % of control
same,T/C,[16],97 % of control
same,T/C,[17],95 % of control
same,T/C,[18],108 % of control
same,T/C,"dose: 400.0 mg/kg/injection, schedule: Q01DX009 (ip), vehicle: saline with Tween-80",91 % of control
COC(=O)c1cc(=O)c2c(Cl)cccc2[nH]1,T/C,[4],96 % of control
same,T/C,[9],110 % of control
same,T/C,[10],95 % of control
O=C(Nc1ccccc1C(F)(F)F)Oc1ccc(Cl)cc1Cl,T/C,[15],103 % of control
same,T/C,[16],94 % of control
same,T/C,[17],99 % of control
same,T/C,[18],102 % of control
same,T/C,"dose: 400.0 mg/kg/injection, schedule: Q04DX003 (ip), vehicle: saline with Tween-80",86 % of control
Br[CH2][Sn]([Br])([Br])[CH2]Br,T/C,"dose: 6.25 mg/kg/injection, schedule: Q04DX002 (ip), vehicle: saline with Tween-80",101 % of control
same,T/C,"dose: 12.5 mg/kg/injection, schedule: Q04DX002 (ip), vehicle: saline with Tween-80",101 % of control
same,T/C,"dose: 25.0 mg/kg/injection, schedule: Q04DX002 (ip), vehicle: saline with Tween-80",116 % of control
CCC[n+]1cccc(C#N)c1,T/C,"dose: 37.5 mg/kg/injection, schedule: Q04DX003 (ip), vehicle: saline",97 % of control
same,T/C,"dose: 75.0 mg/kg/injection, schedule: Q01DX001 (ip), vehicle: saline",94 % of control
same,T/C,"dose: 75.0 mg/kg/injection, schedule: Q04DX003 (ip), vehicle: saline",100 % of control
same,T/C,"dose: 150.0 mg/kg/injection, schedule: Q01DX001 (ip), vehicle: saline",103 % of control
Cc1ccc(C)c(NC(=O)Oc2ccccc2F)c1,T/C,[11],101 % of control
same,T/C,[7],98 % of control
same,T/C,[12],91 % of control
same,T/C,[8],113 % of control
same,T/C,[14],101 % of control
CCCN=C(N)c1ccc(NC(=O)c2ccc(C(=O)Nc3ccc(C(N)=NCCC)cc3)c(Cl)c2)cc1,T/C,"dose: 1.25 mg/kg/injection, schedule: Q01DX Z (ip), vehicle: water",98 % of control
same,T/C,"dose: 2.5 mg/kg/injection, schedule: Q01DX Z (ip), vehicle: water",101 % of control
same,T/C,"dose: 6.5 mg/kg/injection, schedule: Q01DX Z (ip), vehicle: carboxymethylcellulose (CMC)",155 % of control
same,T/C,"dose: 13.0 mg/kg/injection, schedule: Q01DX Z (ip), vehicle: carboxymethylcellulose (CMC)",121 % of control
same,T/C,"dose: 62.0 mg/kg/injection, schedule: Q01DX Z (oral), vehicle: water",104 % of control
same,T/C,"dose: 125.0 mg/kg/injection, schedule: Q01DX Z (oral), vehicle: water",110 % of control
same,T/C,"dose: 250.0 mg/kg/injection, schedule: Q01DX Z (oral), vehicle: water",104 % of control
same,T/C,"dose: 500.0 mg/kg/injection, schedule: Q01DX Z (oral), vehicle: water",104 % of control
CC1(C)CCC(C#N)=C1N,T/C,"dose: 12.5 mg/kg/injection, schedule: Q01DX009 (ip), vehicle: saline with Tween-80",93 % of control
same,T/C,[1],105 % of control
same,T/C,[2],88 % of control
CCCCCCCC(=O)N(CC)CC,T/C,[19],103 % of control
same,T/C,"dose: 50.0 mg/kg/injection, schedule: Q01DX009 (ip), vehicle: saline",97 % of control
same,T/C,[20],103 % of control
same,T/C,[21],101 % of control
same,T/C,[22],100 % of control
same,T/C,"dose: 200.0 mg/kg/injection, schedule: Q04DX002 (ip), vehicle: saline",100 % of control and 102 % of control
same,T/C,"dose: 400.0 mg/kg/injection, schedule: Q04DX002 (ip), vehicle: saline",102 % of control
CCC(C)C(CN)(CCCCN1CCCCC1)c1cccc2ccccc12 (stereo unspecified),T/C,[16],97 % of control
same,T/C,[18],90 % of control
Cc1c([N+](=O)[O-])cc(C(=O)Cl)cc1[N+](=O)[O-],T/C,"dose: 100.0 mg/kg/injection, schedule: Q04DX003 (ip), vehicle: other",106 % of control
same,T/C,"dose: 200.0 mg/kg/injection, schedule: Q04DX003 (ip), vehicle: other",109 % of control
Nc1ccc(CS(=O)(=O)O)cc1,T/C,[21],112 % of control
same,T/C,"dose: 200.0 mg/kg/injection, schedule: Q01DX009 (ip), vehicle: saline",101 % of control
same,T/C,"dose: 400.0 mg/kg/injection, schedule: Q01DX009 (ip), vehicle: saline",101 % of control
O=C(c1ccccc1)C(Cc1ccccc1)C(Cc1ccccc1)c1ccccc1 (stereo unspecified),T/C,"dose: 100.0 mg/kg/injection, schedule: Q04DX003 (ip), vehicle: acetone",93 % of control
same,T/C,"dose: 200.0 mg/kg/injection, schedule: Q04DX003 (ip), vehicle: acetone",98 % of control
same,T/C,"dose: 400.0 mg/kg/injection, schedule: Q04DX003 (ip), vehicle: acetone",92 % of control
COc1ccc(CCc2ccc(OC)cc2)cc1,T/C,[19],106 % of control
same,T/C,[20],117 % of control
same,T/C,[22],109 % of control
CC(C)CCOC(=O)C(O)c1ccccc1 (stereo unspecified),T/C,[11],98 % of control
same,T/C,[7],100 % of control
same,T/C,[12],92 % of control
same,T/C,[8],88 % of control
same,T/C,[13],95 % of control
same,T/C,[14],91 % of control
N#CSc1ncnc2nc[nH]c12,T/C,"dose: 3.5 mg/kg/injection, schedule: Q01DX Z (ip), vehicle: water",104 % of control
same,T/C,"dose: 5.3 mg/kg/injection, schedule: Q01DX Z (ip), vehicle: water",104 % of control
same,T/C,"dose: 6.0 mg/kg/injection, schedule: Q01DX Z (ip), vehicle: water",105 % of control
same,T/C,"dose: 8.0 mg/kg/injection, schedule: Q01DX Z (ip), vehicle: water",107 % of control
same,T/C,"dose: 8.8 mg/kg/injection, schedule: Q01DX Z (ip), vehicle: water",114 % of control
same,T/C,"dose: 12.0 mg/kg/injection, schedule: Q01DX Z (ip), vehicle: water",105 % of control
same,T/C,"dose: 13.3 mg/kg/injection, schedule: Q01DX Z (ip), vehicle: water",108 % of control
same,T/C,"dose: 20.0 mg/kg/injection, schedule: Q01DX Z (ip), vehicle: water",122 % of control
Cc1ccc([N+](=O)[O-])cc1NC(=O)Nc1ccccc1O,T/C,[11],92 % of control
same,T/C,[13],87 % of control

# From PubChem BioAssay AID248 (DTP/NCI, 2004)
